According to US6017947A, “Heterocyclic carbodithioperoxyimidic compounds useful for the inhibition of the replication of HIV” (priority 1999, dated 2000):
Where “and” joins values, the source holds several entries; their conditions need not be identical. Identical values can stand only once.

Experiments:
HIV-1(IIIB) = experiment: Inhibition of HIV-1 induced syncytium formation in CEM cells, HIV-1(IIIB) (WT); format: cell-based; conditions: day 4 post infection
Source text: Cells and Viruses CEM cells were obtained from the […] (Rockville, Md.). HIV-l(IIIB) was originally obtained from the culture supernatant of persistently HIV-1-infected H9 cells and was provided by R. C. Gallo and M. Popovic (National Cancer Institute, National Institutes of Health, Bethesda, Md.).
(§1) CEM cells were suspended at ≈300,000 cells per ml of culture medium and infected with approximately 100 CCID50 (CCID50 being the 50% cell culture infective dose) of HIV-1(IIIB) (designated as "WT" in Table 3) or one of the HIV-1 RT mutant strains described above. Then 100 μl of the infected cell suspensions was added to 200 μl microtiter plate wells containing 100 μl of appropriate serial (5-fold) dilutions of the test compounds. The inhibitiory effect of the test compounds on HIV-1 induced syncytium formation in CEM cells was examined microscopically on day 4 post infection. The 50% effective concentration (EC50) was defined as the test compound concentration that inhibits syncytium formation in the HIV-1-infected cell cultures by 50%.

HIV-1/100-Ile = experiment: Inhibition of HIV-1 induced syncytium formation in CEM cells, RT mutant 100-Ile; format: cell-based; conditions: Human immunodeficiency virus 1, CCRF-CEM, 96 h
Source text: (§2) The selection and characterization of the HIV-1 RT mutant strains were done as follows: HIV-1/100-Ile ("100-Ile") was selected for resistance against TIBO R82150 as described in Balzarini et al, Virology 192: 246-253 (1993); HIV-1/103-Asn ("103-Asn") was selected for resistance against TIBO R82913 as described in Balzarini et al, Virology 192: 246-253 (1993); HIV-1/106-Ala ("106-Ala") was selected for resistance against nevirapine as described in Balzarini et al, J. Virol. 67: 5353-5359 (1993); HIV-1/Lys-138 ("ys-138") was selected for resistance against TSAO-m^3 T as described in Balzarini et al, Virology 192: 246-253 (1993) and Balzarini et al, Proc. Nat. Acad. Sci. USA 90: 6952-6956 (1993); HIV-1/181-Cys ("181-Cys") was selected for resistance against pyridinone L-697,661 as described in Balzarini et al, Virology 192: 246-253 (1993); and HIV-1/188-His ("188-His") was selected for resistance against HEPT as described in Balzarini et al, Mol. Pharmocol. 44: 694-701 (1993). 188-His was then further converted to HIV-1/188-Leu("188-Leu") upon further passage in cell culture in the absence of the HEPT. HIV-1/101-Glu ("101-Glu") and HIV-1/190-Glu ("190-Glu") were selected for resistance against the thiocarboxanilide derivative designated as UC38 as described in Balzarini et al, Antiviral Research 27: 219-236 (1995). HIV-1/184-Ile ("184-Ile") was selected for resistance against the combination of 3TC and TSAO-m^3 T as described in Balzarini et al, Molecular Pharm. 49: 882-890 (1996). HIV-1/184-Val ("184-Val") was selected for resistance against 3TC as described in Balzarini et al, Molecular Pharm. 49: 882-890 (1996).
as §1

HIV-1/101-Glu = experiment: Inhibition of HIV-1 induced syncytium formation in CEM cells, RT mutant 101-Glu; format: cell-based; conditions: Human immunodeficiency virus 1, CCRF-CEM, 96 h
Source text: as §2, §1

HIV-1/103-Asn = experiment: Inhibition of HIV-1 induced syncytium formation in CEM cells, RT mutant 103-Asn; format: cell-based; conditions: Human immunodeficiency virus 1, CCRF-CEM, 96 h
Source text: as §2, §1

HIV-1/106-Ala = experiment: Inhibition of HIV-1 induced syncytium formation in CEM cells, RT mutant 106-Ala; format: cell-based; conditions: Human immunodeficiency virus 1, CCRF-CEM, 96 h
Source text: as §2, §1

HIV-1/Lys-138 = experiment: Inhibition of HIV-1 induced syncytium formation in CEM cells, RT mutant 138-Lys; format: cell-based; conditions: Human immunodeficiency virus 1, CCRF-CEM, 96 h
Source text: as §2, §1

HIV-1/181-Cys = experiment: Inhibition of HIV-1 induced syncytium formation in CEM cells, RT mutant 181-Cys; format: cell-based; conditions: Human immunodeficiency virus 1, CCRF-CEM, 96 h
Source text: as §2, §1

HIV-1/184-Ile = experiment: Inhibition of HIV-1 induced syncytium formation in CEM cells, RT mutant 184-Ile; format: cell-based; conditions: Human immunodeficiency virus 1, CCRF-CEM, 96 h
Source text: as §2, §1

HIV-1/184-Val = experiment: Inhibition of HIV-1 induced syncytium formation in CEM cells, RT mutant 184-Val; format: cell-based; conditions: Human immunodeficiency virus 1, CCRF-CEM, 96 h
Source text: as §2, §1

HIV-1/188-His = experiment: Inhibition of HIV-1 induced syncytium formation in CEM cells, RT mutant 188-His; format: cell-based; conditions: Human immunodeficiency virus 1, CCRF-CEM, 96 h
Source text: as §2, §1

HIV-1/188-Leu = experiment: Inhibition of HIV-1 induced syncytium formation in CEM cells, RT mutant 188-Leu; format: cell-based; conditions: Human immunodeficiency virus 1, CCRF-CEM, 96 h
Source text: as §2, §1

HIV-1/190-Glu = experiment: Inhibition of HIV-1 induced syncytium formation in CEM cells, RT mutant 190-Glu; format: cell-based; conditions: Human immunodeficiency virus 1, CCRF-CEM, 96 h
Source text: as §2, §1

[1] = test system: HIV-1 strains containing the 100 Leu→Ile mutation in their RT; conditions: cited from earlier work
[2] = test system: 181 Tyr→Cys mutation in the RT of HIV-1 strains; conditions: cited from earlier work
[3] = Human immunodeficiency virus 1, IIIB, CCRF-CEM, 96 h, Table 3, WT (HIV-1(IIIB))
[4] = Human immunodeficiency virus 1, IIIB, CCRF-CEM, 96 h, Table 2, HIV-1(IIIB), repeat values
[5] = Table 2, HIV-1(IIIB), repeat values

Row | SMILES | EC50 (HIV-1(IIIB); [3]) [mg/L] | EC50 (HIV-1/100-Ile) [mg/L] | EC50 (HIV-1/101-Glu) [mg/L] | EC50 (HIV-1/103-Asn) [mg/L] | EC50 (HIV-1/106-Ala) [mg/L] | EC50 (HIV-1/Lys-138) [mg/L] | EC50 (HIV-1/181-Cys) [mg/L] | EC50 (HIV-1/184-Ile) [mg/L] | EC50 (HIV-1/184-Val) [mg/L] | EC50 (HIV-1/188-His) [mg/L] | EC50 (HIV-1/188-Leu) [mg/L] | EC50 (HIV-1/190-Glu) [mg/L] | EC50 (HIV-1(IIIB); [4]) [µM] | EC50 (HIV-1(IIIB); [5]) | resistance of the mutant strain to the compound [1] | resistance of the mutant strain to the compound [2]
1 | CSSC(=Nc1ccc(Cl)c(OCC=C(C)C)c1)c1ccoc1C [Compound 4] | 0.0018 | 0.053 | 0.027 | 0.15 | 0.018 | 0.008 | 0.08 | 0.0032 | 0.0015 | 0.85 | 0.58 | > 2 | – | – | – | –
2 | CSSC(=Nc1ccc(Cl)c(C=NOC(C)C)c1)c1ccoc1C [Compound 5, N-[4-chloro-3-[[(1-methylethoxy)imino]-methyl]phenyl]-2-methyl-3-furancarbodithioperoxyimidic acid methyl ester] | 0.0075 | 0.25 | 0.13 | 0.85 | 0.1 | 0.1 | 0.18 | 0.013 | 0.0075 | 0.7 | 0.95 | > 2 | 0.0732 | 0.0431 µM | – | –
3 | CC(C)=CCN1Cc2cc(Cl)cc3[nH]c(=S)n(c23)C[C@@H]1C [TIBO R82913] | – | – | – | – | – | – | – | – | – | – | – | – | – | – | resistant | –
4 | Cc1occc1C(=Nc1ccc(Cl)c(C=NOC(C)(C)C)c1)SSc1ccccc1 [Compound 8] | 0.03 | 0.65 | 0.2 | ≥ 2 | 0.7 | 0.18 | 0.23 | 0.03 | 0.018 | ≥ 2 | > 2 | > 2 | 0.156 | 0.0832 µM | – | –
5 | CSSC(=Nc1ccc(Cl)c(OCC=C(C)C)c1)c1cc(C)oc1C [Compound 9, N-[4-chloro-3-[(3-methyl-2-butenyl)oxy]phenyl]-2,5-dimethyl-3-furancarbodithioperoxyimidic acid methyl ester] | 0.0097 | ≥ 2 | 0.28 | ≥ 2 | 0.2 | 0.09 | 0.7 | 0.05 | 0.009 | ≥ 2 | ≥ 2 | > 2 | 0.065 | 0.0669 µM | – | –
6 | Cc1ccnc2c1NC(=O)c1cccnc1N2C1CC1 [nevirapine] | – | – | – | – | – | – | – | – | – | – | – | – | – | – | – | resistant
7 | CC(C)=CCN1Cc2cccc3[nH]c(=S)n(c23)C[C@@H]1C [Compound R82150] | – | – | – | – | – | – | – | – | – | – | – | – | – | – | resistant | –
8 | CSSC(=Nc1ccc(Cl)c(C=NOC(C)(C)C)c1)c1ccoc1C [Compound 3] | 0.018 | 0.47 | 0.14 | 1.33 | 0.18 | 0.1 | 0.1 | 0.03 | 0.12 | 0.8 | 1.35 | > 2 | 0.128 | 0.121 µM | – | –
9 | CSSC(=Nc1ccc(Cl)c(OCCC(C)C)c1)c1ccsc1C [Compound 1, N-[4-chloro-3-(3-methylbutoxy)-phenyl]-2-methyl-3-thiophenecarbodithioperoxyimidic acid methyl ester] | – | – | – | – | – | – | – | – | – | – | – | – | – | 0.104 µM and 0.186 µM | – | –
10 | CSSC(=Nc1ccc(Cl)c(COc2ccccc2Cl)c1)c1ccoc1C [Compound 7] | 0.0075 | 0.93 | 0.34 | ≥ 2 | 0.55 | 0.13 | 0.47 | 0.02 | 0.009 | 0.65 | 0.7 | > 2 | 0.0486 | 0.0533 µM | – | –
11 | CC(C)=CCOc1cc(N=C(SN2CCOCC2)c2ccoc2C)ccc1Cl [Compound 11] | – | – | – | – | – | – | – | – | – | – | – | – | 0.0163 | 0.0124 µM | – | –
12 | CSSC(=Nc1ccc(Cl)c(OCCC(C)C)c1)c1ccoc1C [Compound 6] | 0.012 | 0.25 | 0.13 | 0.65 | 0.13 | 0.15 | 0.29 | 0.02 | 0.008 | ≥ 2 | > 2 | > 2 | 0.0837 | 0.0804 µM | – | –
13 | CC(C)=CCOc1cc(N=C(SSc2ccccc2)c2ccoc2C)ccc1Cl [Compound 10] | 0.05 | 1.5 | 0.2 | ≥ 2 | 0.5 | 0.23 | ≥ 2 | 0.09 | 0.053 | ≥ 2 | > 2 | > 2 | – | – | – | –
